Reference: patent publication US20250092036A1, “COMPOUNDS AND COMPOSITIONS FOR MODULATING THE ACTIVITY OF ERK” (Novartis AG, priority 2023, published 2025)
Read-outs that look alike come from different tables or passages of the source.

What was measured:
[1] = molecular target: T1, ERK2[2-360(p-T185/p-Y187)]-Avi (Homo sapiens, UniProt P28482); assay: Biochemical assay (HTRF competition assay); assay type: binding; conditions: HTRF competition with Example 15 probe, overnight at RT; read-out: Biochemical qualified AC50
T1 construct: 400 pM ERK2[2-360(p-T185/p-Y187)]-Avi was added to the plate
T1 sequence (P28482 2-360 limits assumed): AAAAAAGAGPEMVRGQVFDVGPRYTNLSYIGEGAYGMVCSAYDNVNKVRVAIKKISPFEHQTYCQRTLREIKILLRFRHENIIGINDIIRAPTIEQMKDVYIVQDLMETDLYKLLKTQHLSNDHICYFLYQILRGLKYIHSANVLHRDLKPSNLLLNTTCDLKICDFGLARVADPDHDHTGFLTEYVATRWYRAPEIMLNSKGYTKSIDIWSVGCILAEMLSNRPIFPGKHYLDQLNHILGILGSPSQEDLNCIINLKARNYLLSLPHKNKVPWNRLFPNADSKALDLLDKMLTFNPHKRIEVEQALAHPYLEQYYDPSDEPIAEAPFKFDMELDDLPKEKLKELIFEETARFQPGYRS
Protocol: The competition assays were performed at RT in a 384-well white polystyrene, flat bottom plate (Greiner #784075) using a final reaction volume of 15 μL and the following assay buffer conditions: 50 mM MOPS, pH 7.2, 10 mM MgCl2, 0.5 mM TCEP, 0.01% Triton-X-100. 75 nL of a 10 mM compound solution in DMSO or 100% DMSO (12 point titration, final concentration: 50 μM-300 pM; final DMSO: 0.5%) was added using an acoustic liquid handler (Echo, Beckman Coulter) to wells containing 7.5 μL of 1-(6-((R)-3-(1-(5-chloro-1-((tetrahydro-2H-pyran-4-yl)methyl)-1H-indole-3-carbonyl)-4-(4-fluorophenyl)piperidine-4-carboxamido)pyrrolidin-1-yl)-6-oxohexyl)-3,3-dimethyl-5-sulfo-2-((1E,3E)-5-((E)-1,3,3-trimethyl-5-sulfoindolin-2-ylidene)penta-1,3-dien-1-yl)-3H-indol-1-ium (Example 15); 7.5 μL 400 pM SA-Tb (Cisbio, 610SATLB) and 400 pM ERK2[2-360(p-T185/p-Y187)]-Avi was added to the plate and incubated overnight at RT. HTRF signal was measured using a microplate reader (PheraStar, BMG Labtech) with excitation and emission wavelengths of […], respectively. The inhibitor dose-response curves were analyzed from the HTRF ratio signal using normalized IC50 regression curve fitting with control-based normalization.

[2] = molecular target: T2, nanobit-large-bit-ERK2 and nanobit-small-bit-PEA15 in WM793 cells (Homo sapiens, UniProt P28482); assay: NanoBiT assay; assay type: cell-based; conditions: WM793 nanobit stable cell line, overnight incubation; read-out: NanoBiT qualified absolute AC50
T2 construct: expressed in transfected cells
T2 sequence (P28482 whole entry): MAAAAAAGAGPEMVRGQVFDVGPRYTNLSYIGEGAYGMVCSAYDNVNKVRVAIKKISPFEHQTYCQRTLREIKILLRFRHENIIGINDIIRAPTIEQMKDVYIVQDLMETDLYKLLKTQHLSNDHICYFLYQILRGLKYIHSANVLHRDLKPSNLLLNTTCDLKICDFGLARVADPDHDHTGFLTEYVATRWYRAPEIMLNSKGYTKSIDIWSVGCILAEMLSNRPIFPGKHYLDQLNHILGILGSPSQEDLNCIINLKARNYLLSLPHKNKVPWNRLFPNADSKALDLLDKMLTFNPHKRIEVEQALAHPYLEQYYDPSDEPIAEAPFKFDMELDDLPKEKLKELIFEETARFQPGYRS
Protocol: (§1) Cancer cell media was prepared by adding 500 mL of RPMI (ThermoFisher cat ##22400-089) and 10% Fetal Bovine Serum (Gibco) for WM793 cells (ATCC Cat #CRL-2806, RRID: CVCL 8787) and F12K (Thermo Fisher cat #21127-022, 500 mL; or 21127-030, 10×500 mL)+10% FBS for PC3 (ATCC CRL-1435) cells. The entire media with supplements was filter sterilized through a 0.4 μm bottle top filter system. Cancer cell lines were detached from traditional cell culture flasks by washing three times with 1×PBS and adding an appropriate amount of 0.25% TrypLE™ Express Enzyme (1×), no phenol red (ThermoFisher cat #12604013) to create a thin layer over the cells. Trypsin was neutralized with media containing serum and proceeded to count the cells.
A nanobit stable cell line was generated using WM793 cells with nanobit-large-bit-ERK2 and nanobit-small-bit-PEA15. […] In a biological safety cabinet, cells were seeded using a sterilized small stainless steel tipped cassette on a Multi-drop Combi. Between different cell lines, the tubing of the cassette was flushed with 1× sterile PBS for 10 s. Alternatively, cells can be seeded using a Multi-flow located within a Hepa filtered robotics room using either a sterilized small sapphire jewel tipped cassette and the peristatic pump, or the attached syringe pump, depending on volume of plates per cell line needed. The plates were placed in an incubator set at 37° C., with 5% CO2 and 95% relative humidity. A 10-point, 3-fold serial dilution of compounds was prepared in 100% DMSO on a liquid handling robot with a 10 mM top concentration. 90 nl/well was dispensed in three assay plates/1 compound source plate, with the highest concentration at 30 μM. After addition of compound was complete, the plates were placed into an incubator at 37° C., with 5% CO2 and 95% relative humidity for overnight. Luminescence was captured on a plate luminometer such as an Envision or View Lux to measure Day 0 time point both select cell lines. LUM plus, gain 3500, 0.1 s and focal height 12.5 [mm] on PheraStar reader. The raw data was extracted from the instrument and normalized all fields containing test compounds to the average of all wells containing DMSO alone as neutral control. From this value, the percent growth inhibition was calculated for each compound. Dose response curves and inhibitory IC50s were generated by graphing the normalized data values against the compound concentration using either a program such as GraphPad™ or Excel Fit.

WM793 cells = assay: Cell proliferation assay (CellTiter-Glo); assay type: cell-based; conditions: 3 d, read-out: Cell proliferation qualified AC50
Protocol: as §1
After counting the cells, the concentration of the cell solution was adjusted to seed a total of 750 cells per well in 50 μL of complete media into 384-well tissue culture treated plates. In a biological safety cabinet, cells were seeded using a sterilized small stainless steel tipped cassette on a Multi-drop Combi. Between different cell lines, the tubing of the cassette was flushed with 1× sterile PBS for 10 seconds. Alternatively, cells can be seeded using a Multi-flow located within a Hepa filtered robotics room using either a sterilized small sapphire jewel tipped cassette and the peristatic pump, or the attached syringe pump, depending on volume of plates per cell line needed. The plates were placed in an incubator set at 37° C., with 5% CO2 and 95% relative humidity. A 10-point, 3-fold serial dilutions of compounds in 100% DMSO was prepared on a liquid handling robot with a 10 mM top concentration. 100 nL/well in three assay plates/1 compound was dispensed to source plate, with the highest concentration at 20 μM. After addition of compound was complete, plates were placed into an incubator at 37° C., with 5% CO2 and 95% relative humidity for 3 d. An adequate volume of CellTiter-Glo® (Promega #G7571) detection reagent was pre-warmed to RT or in a 37° C. H2O bath. 25 μL of the reagent was added to each well using either a Multi-drop Combi or MultiFlo and incubate at RT for at least 15 min. Luminesce was captured on a plate luminometer such as an Envision or View Lux to measure Day 0 time point both select cell lines. LUM plus, gain 3500, 0.1 s and focal height 12.5 mm on PheraStar reader. At Day 3, an adequate volume of CellTiter-Glo® detection reagent was pre-warmed at RT or in a 37° C. H2O bath. A total of 25 μL of the reagent was added to each well using either a Multi-drop Combi or MultiFlo and incubate at RT for at least 15 min. Luminesce was captured on a plate luminometer such as an Envision or View Lux to measure Day 3 time point both select cell lines. LUM plus, gain 3500, 0.1 s and focal height 12.5 mm on PheraStar reader. Raw data was extracted from the instrument and all fields containing test compounds were normalized to the average of all wells containing DMSO alone from Day 3 as neutral control and Day 0 starting numbers. From this value, percent growth inhibition of each compound was calculated. Dose response curves and growth inhibitory IC50s were generated by graphing the normalized data values against the compound concentration using a program such as GraphPad™ or Excel Fit.

[3] = tested on: WM793 BRAFV600E tumor xenograft; assay: Anti-tumor activity and tolerability in WM793 BRAFV600E tumor xenograft in nude rats; assay type: in vivo; conditions: per os
Protocol: Female RNU rats (Charles River, 4-5 weeks of age) were acclimatized into animal facility and pretreated with 100 mg/kg cyclophosphamide IP at 10 ml/kg 24 hrs prior to tumor implant. Nude rats were subcutaneously implanted on the right side with WM793 BRAF^V600E tumors via fragments (20-40 mg) from a previously passaged tumor with sterile techniques under isoflurane anesthesia using a 10 gauge trocar (n=4/group). Body weights were monitored at least once a week and calculated as (BWcurrent−BWinitial)/(BWinitial)×100%. After 1-3 weeks when palpable tumors developed, tumor volumes were monitored at least once a week by caliper measurements. Tumor volumes (mm^3) were calculated as (length×width×width)/2. Rats were randomized and selected for study based on tumor sizes (100-200 mm^3) and appropriate health conditions. Compounds of Formula I, formulated in either 20% HPBCD at 5 mg/ml or 20% HPBCD at 2.5 mg/ml were dosed at 10 ml/kg per os. Animals were euthanized based on poor health conditions, tumor volumes exceeded 2500 mm^3, or have reached the end of study. Regression % was calculated by 100×ΔT/Tinitial if ΔT<0, in which ΔT is the change of tumor volume.

Compound	AC50 [1]	AC50 [2]	AC50 (WM793 cells; Homo sapiens, WM793, 72 h)	Percent body weight change following first dose / tolerability [3]	anti-tumor activity (tumor volume) with holiday break ([3]; 50 mg/kg bid for 5 days with 2 day break)	anti-tumor activity (tumor volume) ([3]; 50 mg/kg bid for 22 days)	AC50 (WM793 cells)	anti-tumor activity (tumor volume) ([3]; 22 days, dose not given)
CCc1c(C[C@H]2CC[C@H](OC3CCOCC3)CC2)c2ccc(F)cc2n1C(=O)N1CCC(C(=O)N[C@H]2CC[C@H](C(=O)O)C[C@@H]2C)(c2ccc(F)cc2)CC1 [Example 5, (1S,3S,4S)-4-(1-(2-ethyl-6-fluoro-3-(((1r,4S)-4-((tetrahydro-2H-pyran-4-yl)oxy)cyclohexyl)methyl)-1H-indole-1-carbonyl)-4-(4-fluorophenyl)piperidine-4-carboxamido)-3-methylcyclohexane-1-carboxylic acid]	0.7 nM	66 nM	24 nM	well tolerated	tumor regression, which is maintained	tumor regression		
CCc1c(C[C@H]2CC[C@H](OC3CCOCC3)CC2)c2ccc(F)cc2n1C(=O)N1CC[C@@](C(=O)N[C@H]2CC[C@H](C(=O)O)C[C@@H]2C)(c2ccccc2)C[C@@H]1C [Example 1j]	< 0.28 nM	30 nM	29 nM					
Cc1c(C[C@H]2CC[C@H](OC(C)C)CC2)c2ccc(F)cc2n1C(=O)N1CC[C@@](C(=O)N[C@H]2CC[C@H](C(=O)O)C[C@@H]2C)(c2ccc(F)cc2)C[C@@H]1C [Example 1l]	< 0.28 nM	270 nM	18 nM					
CCc1c(C[C@H]2CC[C@H](OC3CCOCC3)CC2)c2ccc(F)cc2n1C(=O)N1CC[C@@](C(=O)N[C@H]2CC[C@H](C(=O)O)C[C@@H]2C)(c2ccc(F)c(F)c2)C[C@@H]1C [Example 1a]	< 0.28 nM	160 nM	10 nM					
Cc1c(C[C@H]2CC[C@H](OC3CCOCC3)CC2)c2ccc(F)cc2n1C(=O)N1CC[C@@](C(=O)N[C@H]2CC[C@H](C(=O)O)C[C@@H]2C)(c2ccc(F)cc2)C[C@@H]1C [Example 9, (1S,3S,4S)-4-((2S,4S)-1-(6-fluoro-2-methyl-3-(((1r,4S)-4-((tetrahydro-2H-pyran-4-yl)oxy)cyclohexyl)methyl)-1H-indole-1-carbonyl)-4-(4-fluorophenyl)-2-methylpiperidine-4-carboxamido)-3-methylcyclohexane-1-carboxylic acid]	0.44 nM	26 nM	5.9 nM					
CN1CC[C@@H](NC(=O)C2(c3ccc(Cl)cc3)CCN(C(=O)c3c(C=O)n(CC4CCOCC4)c4ccc(Cl)cc34)CC2)C1 [Example 11b]	0.65 nM	560 nM	220 nM					
CCc1c(C[C@H]2CC[C@H](OC3CCOCC3)CC2)c2ccc(F)cc2n1C(=O)N1CCC(C(=O)N[C@H]2CC[C@H](C(=O)O)CC2(C)C)(c2ccc(F)cc2)CC1 [Example 1e]	< 0.28 nM	19 nM	70 nM					
CC(C)O[C@H]1CC[C@H](Cn2c(C=O)c(C(=O)N3CCC(C(=O)N[C@H]4CC[C@H](C(=O)O)C[C@@H]4C)(c4ccc(F)cc4)CC3)c3cc(Cl)cnc32)CC1 [Example 11g]	0.36 nM	270 nM	610 nM					
Cc1c(C[C@H]2CC[C@H](OC(C)C)CC2)c2ccc(F)cc2n1C(=O)N1CCC(C(=O)N[C@H]2CC[C@H](C(=O)O)C[C@@H]2C)(c2ccc(F)cc2)CC1 [Example 1, (1S,3S,4S)-4-(1-(6-fluoro-3-(((1r,4S)-4-isopropoxycyclohexyl)methyl)-2-methyl-1H-indole-1-carbonyl)-4-(4-fluorophenyl)piperidine-4-carboxamido)-3-methylcyclohexane-1-carboxylic acid]	0.33 nM	100 nM					110 nM	
CC(C)OC1CCC(C2CN(C(=O)N3CC[C@@](C(=O)N[C@H]4CC[C@H](C(=O)O)C[C@@H]4C)(c4ccc(F)cc4)C[C@@H]3C)c3cc(F)ccc32)CC1 (stereo partly drawn) [Example 4, (1S,3S,4S)-4-((2S,4S)-1-(6-fluoro-3-((1R,4S)-4-isopropoxycyclohexyl)indoline-1-carbonyl)-4-(4-fluorphenyl)-2-methylpiperidine-4-carboxamido)-3-methylcyclohexane-1-carboxylic acid]	0.47 nM	20 nM		well tolerated			3 nM	regression
